{
  "source": "patent US20240167005A1",
  "about": "“MODIFIED SHIGELLA APYRASE AND USES THEREOF” (APIRAYS BIOSCIENCES AB, priority 2021, published 2024)",
  "key": {"[1]": {"biological_target": "T1, wild-type Shigella flexneri apyrase, SEQ ID NO: 1 (Shigella flexneri, UniProt Q59909)", "T1 sequence (Q59909 26-246)": "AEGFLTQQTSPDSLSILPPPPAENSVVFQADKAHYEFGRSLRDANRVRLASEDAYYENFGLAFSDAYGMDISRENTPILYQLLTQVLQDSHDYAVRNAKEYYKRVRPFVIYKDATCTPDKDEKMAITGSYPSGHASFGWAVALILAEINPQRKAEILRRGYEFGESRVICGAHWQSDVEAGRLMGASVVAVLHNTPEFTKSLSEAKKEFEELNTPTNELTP", "assay": "ATP hydrolysis, Km for ATP (Example 2), wild type", "assay_type": "biochemical", "conditions": "50 mM Tris, pH 7.5, 37° C., 30 min, 700 ng enzyme", "experimental": "(§1) A titrated series of ATP solutions from 100 mM to 0.01 mM in 50 mM Tris, pH 7.5 were prepared and incubated with 700 ng of Apyrase (mutant prepared in Example 1 and wild-type Shigella flexneri apyrase as control) for 30 minutes at 37° C. (100 μL reaction). After the incubation, 100 μL AMFAS reagent was added and OD was taken at 630 nm using multimode reader (Biotek instruments). The color formation is proportional to the amount of ATP degraded (dephosphorylated to ADP or AMP). […] Specific activity at 10 mM ATP was determined as 6.3 μmoles/min/mg for the mutant apyrase."}, "[2]": {"biological_target": "Shigella flexneri apyrase, mutant apyrase of Example 1, SEQ ID NO: 3 (S50N, F54V, G63R, L66V, N70Q, E77V, A791, D90T, S97T, L108M, Q113N, V120R, K124R, Y127Q, P (Shigella flexneri, UniProt Q59909, A167G/A79I/D90T/E243D/E77V/F162N/F223W/F234Y/F53V/G185A/G206R/G63R/I151L/K124R/K178R/L108M/L182F/L227S/L66V/N174Q/N219K/N70Q/P143R/Q113N/S50N/S97T/T239Q/V120R/V213A/W199Y/Y127Q))", "assay": "ATP hydrolysis, Km for ATP (Example 2), mutant", "assay_type": "biochemical", "conditions": "mutant of Example 1; 50 mM Tris, pH 7.5, 37° C., 30 min, 700 ng enzyme", "experimental": "In order to improve the activity of apyrase and its tolerance to high salt conditions, the inventors mutated the apyrase gene randomly using an error prone PCR method starting from the wild-type Shigella flexneri apyrase DNA sequence (SEQ ID NO: 4) as template. The method incorporates repeated copying of the template at high MgCl2 concentration (5 mM) with Taq polymerase. After every fourth cycle, one fifth of the reaction mixture was transferred to fresh PCR tube and the same process was repeated 22 times to obtain a product that will have randomly mutated nucleotides which can be identified by sequencing. The mutated gene was cloned in pET21a vector. The mutated DNA sequence obtained is presented as SEQ ID NO: 2, containing a total of 31 mutations leading to amino-acid changes (see SEQ ID NO:3 compared to the wild-type amino-acid sequence of SEQ ID NO: 1).\nas §1, with “instruments).” for “instruments). The color formation is proportional to the amount of ATP degraded (dephosphorylated to ADP or AMP).”"}, "[3]": {"biological_target": "Shigella flexneri apyrase (ApiOne, SEQ ID NO: 1) ApiTwo mutant L66V (Shigella flexneri, UniProt Q59909, L66V)", "assay": "Affinity towards ATP, L66V", "assay_type": "biochemical", "conditions": "50 mM Tris-HCl pH 7.5, 37° C., 20 min, 500 ng enzyme", "description": "However, not all reactions successfully generated PCR products by agarose gel electrophoresis. The successful mutations were transformed into the expression host and proteins were expressed and purified to homogeneity by affinity chromatography.\nOther substrates like 2-Glycerophosphate, Pyridoxal phosphate and phenyl phosphate were not hydrolysed by the mutants (Table 2 and FIG. 8A-B).\n(§2) Respective colorimetric/fluorescence assays (mentioned above)."}, "[4]": {"tested_on": "EIEC apyrase variant H116L", "assay": "Affinity of ATP to EIEC H116L (Table 6)", "assay_type": "biochemical", "description": "as §2"}, "[5]": {"biological_target": "Shigella flexneri apyrase (ApiOne, SEQ ID NO: 1) Double mutant L66V/G63R (Shigella flexneri, UniProt Q59909, G63R/L66V)", "conditions": "read-out: Affinity (Km), ATP, 50 mM Tris-HCl pH 7.5, 37° C., 20 min, 500 ng enzyme", "procedure": "To this 200 μL of Ammonium Molybdate Ferrous Ammonium Sulphate (AMFAS) reagent was added. AMFAS reagent was prepared by mixing equal volumes of reagent A and reagent B, where reagent A comprises of 5% (w/v) ammonium molybdate in 5 N H2SO4 and reagent B contains 1% (w/v) ferrous ammonium sulphate in double-distilled water. The amount of inorganic phosphate formed (product of ATP/ADP hydrolysis) is colorimetrically measured at 630 nm using multi-mode spectrophotometer (Biotek instruments).\nThe kinetic curves were plotted and the Michaelis Menten constant (Km) was calculated using GraphPad Prism 5.0 software."}},
  "data": [
    {"smiles": "Nc1ncnc2c1ncn2[C@@H]1O[C@H](COP(=O)(O)OP(=O)(O)OP(=O)(O)O)[C@@H](O)[C@H]1O", "note": "[ATP, Adenosine triphosphate]", "values": [
      {"measurement": "Km", "setting": "[1]", "value": 3300, "unit": "µM"},
      {"measurement": "Km", "setting": "[2]", "value": 3600, "unit": "µM"},
      {"measurement": "Km", "setting": "[3]", "value": 18.5, "unit": "µM"},
      {"measurement": "Km", "setting": "[4]", "value": 24, "unit": "µM"},
      {"measurement": "Km", "setting": "[5]", "value": 20.7, "unit": "µM"}
    ]}
  ]
}
